Results from patent US9045445B2, “Glycine transporter-1 inhibitors, methods of making them, and uses thereof” (Albany Molecular Research, Inc., priority 2010, dated 2015).
pIC50: −log10 of the molar value. Counter-ions that a name gives are not always drawn.

Molecular target: T1, glycine transporter-1 (GlyT-1) (Homo sapiens, UniProt P48067)
T1 construct: JAR cells (ATCC#HTB-144), which endogenously express GlyT-1; host or cells: JAR human choriocarcinoma cells
T1 sequence (P48067 1-706): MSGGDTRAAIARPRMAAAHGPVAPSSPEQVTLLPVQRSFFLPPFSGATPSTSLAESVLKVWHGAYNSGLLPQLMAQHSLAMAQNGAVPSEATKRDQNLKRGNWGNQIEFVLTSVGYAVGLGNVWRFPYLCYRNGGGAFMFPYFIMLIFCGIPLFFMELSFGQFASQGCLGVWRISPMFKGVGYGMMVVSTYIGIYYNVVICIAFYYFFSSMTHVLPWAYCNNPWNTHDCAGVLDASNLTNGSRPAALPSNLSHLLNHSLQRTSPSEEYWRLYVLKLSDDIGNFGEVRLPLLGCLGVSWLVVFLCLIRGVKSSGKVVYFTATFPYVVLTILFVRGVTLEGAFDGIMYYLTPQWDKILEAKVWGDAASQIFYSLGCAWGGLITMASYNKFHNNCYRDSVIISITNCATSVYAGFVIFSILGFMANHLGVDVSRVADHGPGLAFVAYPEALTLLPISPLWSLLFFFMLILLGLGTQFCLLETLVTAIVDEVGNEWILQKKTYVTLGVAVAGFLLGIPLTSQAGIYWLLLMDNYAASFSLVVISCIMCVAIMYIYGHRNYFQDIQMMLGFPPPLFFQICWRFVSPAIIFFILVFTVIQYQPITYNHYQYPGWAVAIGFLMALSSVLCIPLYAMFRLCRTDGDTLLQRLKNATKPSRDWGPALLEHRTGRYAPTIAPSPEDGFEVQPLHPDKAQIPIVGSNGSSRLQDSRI
Assay: [14C]glycine uptake assay in JAR cells endogenously expressing GlyT-1 (scintillation proximity)
Format: cell-based
Conditions: JAR cells, [14C]glycine 5 μM, 3 hour incubation; read-out: GlyT-1 IC50
Experimental: The inhibitory activity of compounds of the invention against the glycine transporter-1 (GlyT-1) can be determined by the following scintillation proximity assay. The potency of each compound was assessed in inhibiting the uptake of radiolabeled glycine ([^14C]glycine) using the human choriocarcinoma cell line, JAR cells (ATCC#HTB-144), which endogenously express GlyT-1. In brief, 50,000 JARS cells were plated per well of tissue culture treated 96-well Cytostar-T plate (PerkinElmer) in RPMI media supplemented with 10% heat inactivated FBS and allowed to attach overnight at 37° C. and 5% CO2. Compounds were serially diluted 3-fold in DMSO generating a nine (9) data point response curve for each compound. Two replicates were performed per determination. The compounds were then diluted into Uptake Buffer (10 mM Hepes, 120 mM NaCl, 2 mM KCl, 1 mM CaCl2 and 1 mM MgCl2, 5 mM Alanine, pH 7.4) with a final DMSO concentration of 0.75% (v/v). Following the overnight incubation, the media was replaced with Uptake Buffer in the presence or absence of diluted compound and pre-incubated at room temperature for 10 minutes prior to the addition of [^14C]glycine at a final concentration of 5 μM. Following a 3 hour incubation period at 37° C. and 5% CO2, the plates were sealed and placed at room temperature in the dark for 15 minutes prior to quantification of incorporated radioactivity using a MicroBeta Trilux scintillation plate reader (PerkinElmer). Data were fit into a four-parameter model to determine the inhibitor concentration at half-maximal response (IC50). The assay window was established by control wells incubated with [^14C]glycine in the presence or absence of 10 mM non-labeled glycine. A dose response curve for a synthesized reference standard was generated on every plate as a positive control.

| pIC50 | Structure (SMILES) |
| --- | --- |
| 7.52 | CCCS(=O)(=O)N1CCN(C2(CNC(=O)c3c(C)cccc3C)CCC(F)(F)CC2)CC1 [compound 146, N-((4,4-Difluoro-1-(4-(propylsulfonyl)piperazin-1-yl)cyclohexyl)methyl)-2,6-dimethylbenzamide Hydrochloride] |
| 7.51 | CCCS(=O)(=O)N1CCN(C2(CNC(=O)c3c(C)cccc3F)CCC(F)(F)CC2)CC1 [compound 147, N-((4,4-Difluoro-1-(4-(propylsulfonyl)piperazin-1-yl)cyclohexyl)methyl)-2-fluoro-6-methyl-benzamide Hydrochloride] |
| 7.52 | CCCS(=O)(=O)N1CCN(C2(CNC(=O)c3ccc(F)cc3C(F)(F)F)CCC(F)(F)CC2)CC1 [compound 148, N-((4,4-Difluoro-1-(4-(propylsulfonyl)piperazin-1-yl)cyclohexyl)methyl)-4-fluoro-2-(trifluoromethyl)benzamide Hydrochloride] |
| 7.16 | CCCS(=O)(=O)N1CCN(C2(CNC(=O)c3c(F)cccc3C(F)(F)F)CCC(F)(F)CC2)CC1 [compound 149, N-((4,4-Difluoro-1-(4-(propylsulfonyl)piperazin-1-yl)cyclohexyl)methyl)-2-fluoro-6-(trifluoromethyl)benzamide Hydrochloride] |
| 7.21 | CCCS(=O)(=O)N1CCN(C2(CNC(=O)c3ccc(C(F)(F)F)cc3F)CCC(F)(F)CC2)CC1 [compound 150, N-((4,4-Difluoro-1-(4-(propylsulfonyl)piperazin-1-yl)cyclohexyl)methyl)-2-fluoro-4-(trifluoromethyl)benzamide Hydrochloride] |
| 7.47 | CCCS(=O)(=O)N1CCN(C2(CNC(=O)c3c(Cl)cccc3OC)CCC(F)(F)CC2)CC1 [compound 152, 2-Chloro-N-((4,4-difluoro-1-(4-(propylsulfonyl)piperazin-1-yl)cyclohexyl)methyl)-6-methoxybenzamide Hydrochloride] |
| 7.16 | CCCS(=O)(=O)N1CCN(C2(CNC(=O)c3ccc(Cl)cc3C)CCC(F)(F)CC2)CC1 [compound 153, 4-Chloro-N-((4,4-difluoro-1-(4-(propylsulfonyl)piperazin-1-yl)cyclohexyl)methyl)-2-methylbenzamide Hydrochloride] |
| 7.42 | CCCS(=O)(=O)N1CCN(C2(CNC(=O)c3ccc(F)cc3Cl)CCC(F)(F)CC2)CC1 [compound 154, 2-Chloro-N-((4,4-difluoro-1-(4-(propylsulfonyl)piperazin-1-yl)cyclohexyl)methyl)-4-fluorobenzamide Hydrochloride] |
| 7.59 | CCCS(=O)(=O)N1CCN(C2(CNC(=O)c3c(C)cccc3Cl)CCC(F)(F)CC2)CC1 [compound 155, 2-Chloro-N-((4,4-difluoro-1-(4-(propylsulfonyl)piperazin-1-yl)cyclohexyl)methyl)-6-methylbenzamide Hydrochloride] |
| 7.37 | CCCS(=O)(=O)N1CCN(C2(CNC(=O)c3c(F)cccc3Cl)CCC(F)(F)CC2)CC1 [compound 156, 2-Chloro-N-((4,4-difluoro-1-(4-(propylsulfonyl)piperazin-1-yl)cyclohexyl)methyl)-6-fluorobenzamide Hydrochloride] |
| 7.23 | CCCS(=O)(=O)N1CCN(C2(CNC(=O)c3c(Cl)cccc3C(F)(F)F)CCC(F)(F)CC2)CC1 [compound 157, 2-Chloro-N-((4,4-difluoro-1-(4-(propylsulfonyl)piperazin-1-yl)cyclohexyl)methyl)-6-(trifluoromethyl)benz-amide Hydrochloride] |
| 7.46 | CCCS(=O)(=O)N1CCN(C2(CNC(=O)c3c(F)cccc3OC(F)(F)F)CCC(F)(F)CC2)CC1 [compound 158, N-((4,4-Difluoro-1-(4-(propylsulfonyl)piperazin-1-yl)cyclohexyl)methyl)-2-fluoro-6-(trifluoro-methoxy)benzamide Hydrochloride] |
| 7.54 | CCCS(=O)(=O)N1CCN(C2(CNC(=O)c3c(Cl)cccc3OC(F)(F)F)CCC(F)(F)CC2)CC1 [compound 159, 2-Chloro-N-((4,4-difluoro-1-(4-(propylsulfonyl)piperazin-1-yl)cyclohexyl)methyl)-6-(trifluoromethoxy) benzamide Hydrochloride] |
| 8.40 | Cc1cccc(C)c1C(=O)NCC1(N2CCN(S(=O)(=O)c3cn(C)cn3)CC2)CCC(F)(F)CC1 [compound 164, N-((4,4-Difluoro-1-(4-(1-methyl-1H-imidazol-4-ylsulfonyl)piperazin-1-yl)cyclohexyl)methyl)-2,6-dimethylbenzamide Hydrochloride] |
| 7.54 | Cn1cnc(S(=O)(=O)N2CCN(C3(CNC(=O)c4ccc(Cl)cc4F)CCC(F)(F)CC3)CC2)c1 [compound 165, 4-Chloro-N-((4,4-difluoro-1-(4-(1-methyl-1H-imidazol-4-ylsulfonyl)piperazin-1-yl)cyclohexyl)methyl)-2-fluorobenzamide Hydrochloride] |
| 7.82 | Cc1cc(Cl)ccc1C(=O)NCC1(N2CCN(S(=O)(=O)c3cn(C)cn3)CC2)CCC(F)(F)CC1 [compound 168, 4-Chloro-N-((4,4-difluoro-1-(4-(1-methyl-1H-imidazol-4-ylsulfonyl)piperazin-1-yl)cyclohexyl)methyl)-2-methylbenzamide Hydrochloride] |
| 8.70 | Cn1cnc(S(=O)(=O)N2CCN(C3(CNC(=O)c4ccc(F)cc4C(F)(F)F)CCC(F)(F)CC3)CC2)c1 [compound 169, N-((4,4-Difluoro-1-(4-(1-methyl-1H-imidazol-4-ylsulfonyl)piperazin-1-yl)cyclohexyl)methyl)-4-fluoro-2-(trifluoromethyl)benzamide Hydrochloride] |
| 7.85 | Cn1cnc(S(=O)(=O)N2CCN(C3(CNC(=O)c4ccc(C(F)(F)F)cc4F)CCC(F)(F)CC3)CC2)c1 [compound 170, N-((4,4-Difluoro-1-(4-(1-methyl-1H-imidazol-4-ylsulfonyl)piperazin-1-yl)cyclohexyl)methyl)-2-fluoro-4-(trifluoromethyl)benzamide Hydrochloride] |
| 8.70 | Cn1cnc(S(=O)(=O)N2CCN(C3(CNC(=O)c4ccc(C(F)(F)F)cc4Cl)CCC(F)(F)CC3)CC2)c1 [compound 171, N-((4,4-Difluoro-1-(4-(1-methyl-1H-imidazol-4-ylsulfonyl)piperazin-1-yl)cyclohexyl)methyl)-2-chloro-4-(trifluoromethyl)benzamide Hydrochloride] |
| 8.52 | Cn1cnc(S(=O)(=O)N2CCN(C3(CNC(=O)c4c(F)cccc4C(F)(F)F)CCC(F)(F)CC3)CC2)c1 [compound 172, N-((4,4-Difluoro-1-(4-(1-methyl-1H-imidazol-4-ylsulfonyl)piperazin-1-yl)cyclohexyl)methyl)-2-fluoro-6-(trifluoromethyl)benzamide Hydrochloride] |
| 8.70 | COc1cccc(Cl)c1C(=O)NCC1(N2CCN(S(=O)(=O)c3cn(C)cn3)CC2)CCC(F)(F)CC1 [compound 173, 2-Chloro-N-((4,4-Difluoro-1-(4-(1-methyl-1H-imidazol-4-ylsulfonyl)piperazin-1-yl)cyclohexyl)methyl)-6-methoxybenzamide Hydrochloride] |
| 8.30 | Cn1cnc(S(=O)(=O)N2CCN(C3(CNC(=O)c4c(Cl)cccc4Cl)CCC(F)(F)CC3)CC2)c1 [compound 174, 2,6-Dichloro-N-((4,4-difluoro-1-(4-(1-methyl-1H-imidazol-4-ylsulfonyl)piperazin-1-yl)cyclohexyl)methyl) benzamide Hydrochloride] |
| 7.24 | Cn1cnc(S(=O)(=O)N2CCN(C3(CNC(=O)c4ccccc4F)CCC(F)(F)CC3)CC2)c1 [compound 175, N-((4,4-Difluoro-1-(4-(1-methyl-1H-imidazol-4-ylsulfonyl)piperazin-1-yl)cyclohexyl)methyl)-2-fluorobenzamide Hydrochloride] |
